Measurements: patent publication US10005774B2, “Syk inhibitors” (Gilead Sciences, Inc., priority 2013, dated 2018)
pIC50: −log10 of the molar value.

Target: Syk (Homo sapiens, UniProt P43405)
Experiment: High Throughput Syk Biochemical Assay (KinEASE TR-FRET)
Details: TABLE D, 20 μM ATP, 1 μM biotinylated peptide, 0.015 nM Syk, 30 min at room temperature, read-out: IC50
In short: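 Compounds in DMSO dilution series were tested against Syk, which phosphorylates an XL665-tagged peptide. The phosphoproduct was bound by Eu-labelled phosphotyrosine antibody in a two-step endpoint format.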

| Compound | pIC50 |
| --- | --- |
| C[C@@H](Oc1nc(-c2cccc3scnc23)cc2ncn(C)c12)[C@H]1CNC(=O)C1 [(R)-4-((R)-1-(6-(benzo[d]thiazol-4-yl)-3-methyl-3H-imidazo[4,5-c]pyridin-4-yloxy)ethyl)pyrrolidin-2-one] | 6.73 |
| C[C@@H](Oc1nc(-c2cccc(N3CCOCC3)c2)cc2ncn(C)c12)[C@H]1CNC(=O)C1 [(R)-4-((R)-1-(3-methyl-6-(3-morpholinophenyl)-3H-imidazo[4,5-c]pyridin-4-yloxy)ethyl)pyrrolidin-2-one] | 6.99 |

Same assay, conditions: table 'ALL NEW COMPOUNDS IN 2014', 20 μM ATP, 1 μM biotinylated peptide, 0.015 nM Syk, 30 min at room temperature, read-out: Syk IC50

| Compound | pIC50 |
| --- | --- |
| CCOc1cc(-c2cc(O[C@H](C)[C@H]3CNC(=O)C3)c3c(c2)ncn3C2CC2)ccc1OC [(R)-4-((R)-1-((1-cyclopropyl-5-(3-ethoxy-4-methoxyphenyl)-1H-benzo[d]imidazol-7-yl)oxy)ethyl)pyrrolidin-2-one] | 7.89 |
| CCOc1ccc(-c2cc3ncn(C4CC4)c3c(O[C@H](C)[C@H]3CNC(=O)C3)n2)cc1OC [(R)-4-((R)-1-((3-cyclopropyl-6-(4-ethoxy-3-methoxyphenyl)-3H-imidazo[4,5-c]pyridin-4-yl)oxy)ethyl)pyrrolidin-2-one] | 8.61 |
| (R)-4-((R)-1-((3-cyclopropyl-6-(3,4-dimethoxyphenyl)-3H-imidazo[4,5-c]pyridin-4-yl)oxy)ethyl)pyrrolidin-2-one | 8.18 |
| C[C@@H](Oc1cc(-c2nccs2)cc2ncn(C3CC3)c12)[C@H]1CNC(=O)C1 [(R)-4-((R)-1-((1-cyclopropyl-5-(thiazol-2-yl)-1H-benzo[d]imidazol-7-yl)oxy)ethyl)pyrrolidin-2-one] | 8.03 |
| CCS(=O)(=O)N1CCN(c2ccc(-c3cc4ncn(C5CC5)c4c(O[C@H](C)[C@H]4CNC(=O)C4)n3)cc2)CC1 [(R)-4-((R)-1-((3-cyclopropyl-6-(4-(4-(ethylsulfonyl)piperazin-1-yl)phenyl)-3H-imidazo[4,5-c]pyridin-4-yl)oxy)ethyl)pyrrolidin-2-one] | 8.98 |
| C[C@@H](Oc1nc(-c2ccc3c(c2)NC(=O)C3)cc2ncn(C3CC3)c12)[C@H]1CNC(=O)C1 [6-(3-cyclopropyl-4-((R)-1-((R)-5-oxopyrrolidin-3-yl)ethoxy)-3H-imidazo[4,5-c]pyridin-6-yl)indolin-2-one] | 8.76 |
| C[C@@H](Oc1nc(-c2ccc(N3CC4CC(C3)N4C3COC3)cc2)cc2ncn(C3CC3)c12)[C@H]1CNC(=O)C1 [(4R)-4-((1R)-1-((3-cyclopropyl-6-(4-(6-(oxetan-3-yl)-3,6-diazabicyclo[3.1.1]heptan-3-yl)phenyl)-3H-imidazo[4,5-c]pyridin-4-yl)oxy)ethyl)pyrrolidin-2-one] | 8.57 |
| C[C@@H](Oc1cc(-c2ccn(C(C)(C)C)n2)cc2ncn(C3CC3)c12)[C@H]1CNC(=O)C1 [(R)-4-((R)-1-((5-(1-(tert-butyl)-1H-pyrazol-3-yl)-1-cyclopropyl-1H-benzo[d]imidazol-7-yl)oxy)ethyl)pyrrolidin-2-one] | 8.30 |
| Cc1cc(-c2cc3ncn(C4CC4)c3c(O[C@H](C)[C@H]3CNC(=O)C3)n2)ccc1N1CCN(C2COC2)CC1 [(R)-4-((R)-1-((3-cyclopropyl-6-(3-methyl-4-(4-(oxetan-3-yl)piperazin-1-yl)phenyl)-3H-imidazo[4,5-c]pyridin-4-yl)oxy)ethyl)pyrrolidin-2-one] | 8.84 |
| C[C@@H](Oc1cc(-c2ccc(N3CCN(C4COC4)CC3)c(F)c2)cc2ncn(C3CC3)c12)[C@H]1CNC(=O)C1 [(R)-4-((R)-1-((1-cyclopropyl-5-(3-fluoro-4-(4-(oxetan-3-yl)piperazin-1-yl)phenyl)-1H-benzo[d]imidazol-7-yl)oxy)ethyl)pyrrolidin-2-one] | 8.51 |
| C[C@@H](Oc1nc(-c2ccc(N3CC(N4CCOCC4)C3)cc2)cc2ncn(C3CC3)c12)[C@H]1CNC(=O)C1 [(R)-4-((R)-1-((3-cyclopropyl-6-(4-(3-morpholinoazetidin-1-yl)phenyl)-3H-imidazo[4,5-c]pyridin-4-yl)oxy)ethyl)pyrrolidin-2-one] | 8.25 |
